Reference: US20100210602A1, “PhoU (PerF), A P[…] INVOLVED IN [sequence] FORMATION AND TOLERANCE TO MULTIPLE ANTIBIOTICS AND [sequence] AS A DRUG TARGET FOR [sequence] BACTERIA” (priority 2006, published 2010)
Values after ≈ are worked out from the molar mass of the structure shown. Read-outs that look alike come from different tables or passages of the source.

Tests used:
PhoU = target: T1, PhoU (Escherichia coli, UniProt P0A9K7); assay: PhoU phosphatase substrate specificity; type: biochemical, E. coli; settings: pH5, pH7 and pH8
T1 construct: His; made in house
T1 sequence (P0A9K7 whole entry): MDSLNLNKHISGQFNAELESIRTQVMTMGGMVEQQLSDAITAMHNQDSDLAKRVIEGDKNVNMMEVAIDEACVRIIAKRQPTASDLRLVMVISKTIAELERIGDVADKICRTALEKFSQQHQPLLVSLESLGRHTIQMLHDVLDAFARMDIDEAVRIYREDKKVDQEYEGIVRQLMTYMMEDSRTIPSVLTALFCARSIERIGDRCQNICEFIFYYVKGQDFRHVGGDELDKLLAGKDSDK
Procedure: Different substrates for the PhoU phosphatase activity were tested. […] For PhoU, the substrates acetyl-P, carbamoyl-P, imido-di phosphate (imido-di-P), r-nitrophenyl phosphate (rNPP), β-Nicotinamide adenine dinucleotide phosphate (NADP), Glucose-1,6-bisphosphate (Glucose-1,6-bisP) were tested at pH5, pH7, and pH8 condition, as potential PhoU phosphatase activity.

W3110 = assay: microbe, parasite or virus in culture; settings: Escherichia coli, read-out: zone inhibition
JHU-313 = assay: Kirby-Bauer paper disc assay, zone inhibition; settings: Escherichia coli, read-out: zone inhibition
JHU-313 containing pPhoU [1] = assay: Kirby-Bauer paper disc assay, zone inhibition; settings: Escherichia coli, read-out: zone inhibition
[2] = tested on: JHU-313 containing pVector; assay: Kirby-Bauer paper disc assay, zone inhibition; settings: Escherichia coli, read-out: zone inhibition
wild type strain W3110 [3] = assay: microbe, parasite or virus in culture; type: cell-based, E. coli; settings: Escherichia coli, W3110, LB broth, 16 h at 37° C.
PhoU mutant (JHU-313) [4] = assay: MIC/MBC by serial two-fold dilutions in LB broth; type: cell-based, E. coli; settings: Escherichia coli, 16 h at 37° C.
JHU-313 containing pPhoU [5] = assay: MIC/MBC by serial two-fold dilutions in LB broth; type: cell-based, E. coli; settings: Escherichia coli, 16 h at 37° C.
[6] = tested on: JHU-313 containing pVector; assay: MIC/MBC by serial two-fold dilutions in LB broth; type: cell-based, E. coli; settings: Escherichia coli, 16 h at 37° C.
wild type strain W3110 [7] = type: cell-based, E. coli
PhoU mutant (JHU-313) [8] = assay: Sequential antibiotic exposure of ampicillin persisters (CFU); type: cell-based, E. coli
wild type strain W3110 [9] = type: cell-based
[10] = tested on: PhoU transposon mutant (JHU-313); type: cell-based
[11] = tested on: PhoU deletion mutant (ΔphoU); type: cell-based
[12] = 20 h after 1.5 h ampicillin pre-exposure, ampicillin 100, gentamicin 20, trimethoprim 16, norfloxacin 5 μg/ml
[13] = log phase, ampicillin 100 μg/ml, 1.5 h
[14] = log phase, 100 μg/ml, 24 hr exposure
[15] = log phase, 1 week, Ap100, Norf3
[16] = log phase, 5 hr, ampicillin 100 μg/ml (Ap100), norfloxacin 3 μg/ml (Norf3)
[17] = log phase, 3 days, Ap100, Norf3
[18] = log phase, 5 days, Ap100, Norf3
[19] = log phase, 10 days, Ap100, Norf3
[20] = log phase, ampicillin 100 μg/ml, norfloxacin 3 μg/ml
[21] = stationary phase, 100 μg/ml, 72 hr
[22] = stationary phase, 1 week, Ap100, Norf3
[23] = stationary phase, 5 hr, ampicillin 100 μg/ml (Ap100), norfloxacin 3 μg/ml (Norf3)
[24] = stationary phase, 1 day, Ap100, Norf3
[25] = stationary phase, 3 days, Ap100, Norf3
[26] = stationary phase, 5 days, Ap100, Norf3
[27] = stationary phase, 10 days, Ap100, Norf3

**Q.** With `O=[N+]([O-])c1ccc(OP(=O)(O)O)cc1` [rNPP, r-nitrophenyl phosphate] as the compound, how does the “rank as PhoU phosphatase substrate” value (PhoU) read?
**A.** acetyl-P>rNPP>carbamoyl-P>Glucose-1,6-bisP>NADP

**Q.** Which results are given for `CN(C)[C@@H]1C(O)=C(C(N)=O)C(=O)[C@@]2(O)C(O)=C3C(=O)c4c(O)cccc4[C@@](C)(O)[C@H]3C[C@@H]12` [Tetracycline]?
**A.** zone of inhibition at 12.5 µg/mL (W3110): 22 mm; zone of inhibition at 25 µg/mL (W3110): 23 mm; zone of inhibition at 50 µg/mL (W3110): 23 mm; zone of inhibition at 12.5 µg/mL (JHU-313): 26 mm; zone of inhibition at 25 µg/mL (JHU-313): 32 mm; zone of inhibition at 50 µg/mL (JHU-313): 32 mm; zone of inhibition at 12.5 µg/mL (JHU-313 containing pPhoU [1]): 30 mm; zone of inhibition at 25 µg/mL (JHU-313 containing pPhoU [1]): 32 mm; zone of inhibition at 50 µg/mL (JHU-313 containing pPhoU [1]): 32 mm; zone of inhibition at 12.5 µg/mL [2]: 34 mm; zone of inhibition at 25 µg/mL [2]: 34 mm; zone of inhibition at 50 µg/mL [2]: 34 mm

**Q.** Which results are given for `CC1(C)S[C@@H]2[C@H](NC(=O)[C@H](N)c3ccccc3)C(=O)N2[C@H]1C(=O)O` [Ampicillin, ampicillin]?
**A.** MBC (wild type strain W3110 [3]; read-out: MBC): 12.5 µg/mL (≈ 35.8 µM); MIC (wild type strain W3110 [3]; read-out: MIC): 3.1 µg/mL (≈ 8.87 µM); MBC (PhoU mutant (JHU-313) [4]; read-out: MBC): 6.25 µg/mL (≈ 17.9 µM); MIC (PhoU mutant (JHU-313) [4]; read-out: MIC): 1.5 µg/mL (≈ 4.29 µM); MBC (JHU-313 containing pPhoU [5]; read-out: MBC): 12.5 µg/mL (≈ 35.8 µM); MIC (JHU-313 containing pPhoU [5]; read-out: MIC): 3.1 µg/mL (≈ 8.87 µM); MBC ([6]; read-out: MBC): 6.25 µg/mL (≈ 17.9 µM); MIC ([6]; read-out: MIC): 3.1 µg/mL (≈ 8.87 µM); CFU after second antibiotic exposure (wild type strain W3110 [7]; [12]): 7 × 10^5 CFU/ml; decrease in CFU count (wild type strain W3110 [7]; log phase, 100 μg/ml, 1.5 hr): 3 log; CFU after ampicillin treatment (wild type strain W3110 [7]; [13]): 7 × 10^4 CFU/ml; CFU after second antibiotic exposure (PhoU mutant (JHU-313) [8]; [12]): 0 CFU/ml; decrease in CFU count (PhoU mutant (JHU-313) [8]; log phase, 100 μg/ml, 1.5 hr): 3 log; CFU after ampicillin treatment (PhoU mutant (JHU-313) [8]; [13]): 4 × 10^4 CFU/ml; viable bacteria left (wild type strain W3110 [9]; [14]): 10-100; CFU (wild type strain W3110 [9]; [15]): 0 CFU; CFU (wild type strain W3110 [9]; [16]): 3 × 10^3 CFU; CFU (wild type strain W3110 [9]; log phase, 1 day, Ap100, Norf3): 10 CFU; CFU (wild type strain W3110 [9]; [17]): 0 CFU; CFU (wild type strain W3110 [9]; [18]): 0 CFU; CFU (wild type strain W3110 [9]; [19]): 0 CFU; time to killing of all cells (wild type strain W3110 [9]; [20]): all cells were killed by three days; viable cells (wild type strain W3110 [9]; [21]): 10^8 CFU/ml; CFU (wild type strain W3110 [9]; [22]): 5 × 10^6 CFU; CFU (wild type strain W3110 [9]; [23]): 5 × 10^9 CFU; CFU (wild type strain W3110 [9]; [24]): 3 × 10^9 CFU; CFU (wild type strain W3110 [9]; [25]): 1 × 10^8 CFU; CFU (wild type strain W3110 [9]; [26]): 3 × 10^7 CFU; CFU (wild type strain W3110 [9]; [27]): 2 × 10^5 CFU; killed more than the wild type strain ([10]; log phase, 100 μg/ml, 3 hr): about 100 fold; viable cells remaining [10, 14]: no viable cells remained; CFU [10, 15]: 0 CFU; CFU [10, 16]: 20 CFU; CFU ([10]; log phase, 1 day, Ap100, Norf3): 0-1 CFU; CFU [10, 17]: 0 CFU; CFU [10, 18]: 0 CFU; CFU [10, 19]: 0 CFU; time to killing of all cells [10, 20]: all cells were killed by three days; sterilization of culture [10, 21]: completely sterilized; CFU [10, 22]: 0 CFU; CFU [10, 23]: 2 × 10^8 CFU; CFU [10, 24]: 1 × 10^7 CFU; CFU [10, 25]: 0 CFU; CFU [10, 26]: 0 CFU; CFU [10, 27]: 0 CFU; CFU [11, 15]: 0 CFU; CFU [11, 16]: 6 × 10^2 CFU; CFU ([11]; log phase, 1 day, Ap100, Norf3): 0-1 CFU; CFU [11, 17]: 0 CFU; CFU [11, 18]: 0 CFU; CFU [11, 19]: 0 CFU; time to killing of all cells [11, 20]: all cells were killed by three days; CFU [11, 22]: 0 CFU; CFU [11, 23]: 6 × 10^8 CFU; CFU [11, 25]: 0 CFU; CFU [11, 26]: 0 CFU; CFU [11, 27]: 0 CFU; zone of inhibition at 1.5 µg/mL (W3110): 21 mm; zone of inhibition at 6 µg/mL (W3110): 25 mm; zone of inhibition at 25 µg/mL (W3110): 28 mm; zone of inhibition at 100 µg/mL (W3110): 35 mm; zone of inhibition at 1.5 µg/mL (JHU-313): 25 mm; zone of inhibition at 6 µg/mL (JHU-313): 30 mm; zone of inhibition at 25 µg/mL (JHU-313): 35 mm; zone of inhibition at 100 µg/mL (JHU-313): 40 mm; zone of inhibition at 1.5 µg/mL (JHU-313 containing pPhoU [1]): 25 mm; zone of inhibition at 6 µg/mL (JHU-313 containing pPhoU [1]): 32 mm; zone of inhibition at 25 µg/mL (JHU-313 containing pPhoU [1]): 36 mm; zone of inhibition at 100 µg/mL (JHU-313 containing pPhoU [1]): 40 mm; zone of inhibition at 1.5 µg/mL [2]: 27 mm; zone of inhibition at 6 µg/mL [2]: 34 mm; zone of inhibition at 25 µg/mL [2]: 40 mm; zone of inhibition at 100 µg/mL [2]: 45 mm

**Q.** For `NC(=O)OP(=O)(O)O` [carbamoyl-P, carbamoyl phosphate], which “rank as PhoU phosphatase substrate” value (PhoU) is on record?
**A.** acetyl-P>rNPP>carbamoyl-P>Glucose-1,6-bisP>NADP

**Q.** With `O=P(O)(O)OC[C@H]1O[C@H](OP(=O)(O)O)[C@H](O)[C@@H](O)[C@@H]1O` [Glucose-1,6-bisP, Glucose-1,6-bisphosphate] as the compound, how does the “rank as PhoU phosphatase substrate” value (PhoU) read?
**A.** acetyl-P>rNPP>carbamoyl-P>Glucose-1,6-bisP>NADP
